Among the data in patent US20130029970A1 (priority 2009, published 2013) are IC50 values, retold here.

The target of test [1] is T1, recombinant human cannabinoid receptor CB1 (Homo sapiens, UniProt P21554).
T1 construct: (cDNA clone) CNR01L000
Briefly: Cannabinoid receptor radioligand binding assay, [3H]-CP 55,940 displacement, hCB1. In a few lines:
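Membranes from HEK-293 cells stably expressing human CB1, 2-10 μg protein, incubated 90 min at room temperature with 0.5 nM [3H]-CP 55,940 in Tris-HCl pH 7.5, MgCl2, EDTA and 0.1% fatty-acid-free BSA. Bound radioactivity counted after rapid filtration; nonspecific binding defined with 1 μM unlabeled CP 55,940.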

For test [2], the target named is T2, recombinant human cannabinoid receptor CB2 (Homo sapiens, UniProt P34972).
T2 construct: (cDNA clone) CNR0200000
T2 sequence (P34972 whole entry): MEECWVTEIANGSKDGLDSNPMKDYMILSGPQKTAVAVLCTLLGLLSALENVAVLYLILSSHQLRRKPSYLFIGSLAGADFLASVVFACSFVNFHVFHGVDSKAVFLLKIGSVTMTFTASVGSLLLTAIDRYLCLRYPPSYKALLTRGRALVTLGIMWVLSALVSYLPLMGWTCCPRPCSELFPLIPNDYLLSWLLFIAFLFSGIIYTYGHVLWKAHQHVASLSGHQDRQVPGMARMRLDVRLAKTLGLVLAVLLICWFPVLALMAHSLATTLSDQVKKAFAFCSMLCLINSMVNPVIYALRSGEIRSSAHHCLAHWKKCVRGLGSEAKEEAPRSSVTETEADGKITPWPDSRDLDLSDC
Briefly: Cannabinoid receptor radioligand binding assay, [3H]-CP 55,940 displacement, hCB2. In a few lines: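 Membranes from hCB2-transfected cells, prepared by 1000×g then 40,000×g centrifugation, resuspended in 20 mM HEPES pH 7.4, 5 mM MgCl2, 1 mM EDTA, 10% sucrose.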

Some results are limits rather than exact numbers.

T1 sequence (P21554 whole entry): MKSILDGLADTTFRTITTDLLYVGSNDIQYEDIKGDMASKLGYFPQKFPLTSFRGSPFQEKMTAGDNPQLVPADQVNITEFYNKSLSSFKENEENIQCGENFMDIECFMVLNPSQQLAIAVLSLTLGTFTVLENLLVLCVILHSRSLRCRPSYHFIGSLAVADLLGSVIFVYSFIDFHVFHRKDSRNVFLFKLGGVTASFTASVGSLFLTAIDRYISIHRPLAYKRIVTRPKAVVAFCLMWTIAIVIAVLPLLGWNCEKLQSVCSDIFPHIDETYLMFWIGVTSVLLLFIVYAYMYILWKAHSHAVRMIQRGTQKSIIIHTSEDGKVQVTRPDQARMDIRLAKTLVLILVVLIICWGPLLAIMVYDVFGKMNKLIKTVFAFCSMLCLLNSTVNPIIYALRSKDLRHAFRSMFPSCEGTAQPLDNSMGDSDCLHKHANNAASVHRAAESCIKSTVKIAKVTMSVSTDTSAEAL

Broadly, the IC50 is the concentration at which inhibition is half-maximal. Regarding `Cc1ccc(C(O)c2cc3cc(C)n(CCN4CCOCC4)c3s2)cn1` (stereo not drawn) [Compound 125, (5-Methyl-6-(2-morpholinoethyl)-6H-thieno[2,3-b]pyrrol-2-yl)(6-methylpyridin-3-yl)methanol], the IC50 in test [1] and in test [2] was more than 10 µM in each case.
Turning to `Cc1cc2cc(C(=O)c3cccc(Cl)c3Cl)sc2n1CCN1CCOCC1` [Compound 1, (2,3-dichlorophenyl)(5-methyl-6-(2-morpholinoethyl)-6H-thieno[2,3-b]pyrrol-2-yl)methanone], the values for the IC50 in test [1] and in test [2] were 0.1 to 1 µM and less than 0.1 µM, respectively.
In the same order, the values of `CCOC(=O)CCn1c(C)cc2cc(C(=O)c3ccc(OC)cc3)sc21` [Compound 72, Ethyl 3-(2-(4-methoxybenzoyl)-5-methyl-6H-thieno[2,3-b]pyrrol-6-yl)propanoate] are more than 10 µM and 1 to 10 µM.
In the same order, the values of `COc1ccc(C(=O)c2cc3cc(C)n(CCN4CCCCC4)c3s2)c(F)c1` [Compound 98, (2-Fluoro-4-methoxyphenyl)(5-methyl-6-(2-(piperidin-1-yl)ethyl)-6H-thieno[2,3-b]pyrrol-2-yl)methanone] are 1 to 10 µM and less than 0.1 µM.
On to `Cc1cc2cc(C(=O)c3ccc(F)cc3Cl)sc2n1CCN1CCOCC1` [Compound 64, (2-Chloro-4-fluorophenyl)(5-methyl-6-(2-morpholinoethyl)-6H-thieno[2,3-b]pyrrol-2-yl)methanone], for which the values for the IC50 in test [1] and in test [2] were 1 to 10 µM and less than 0.1 µM, respectively.
On the same counts, the results for `Cc1cc2cc(C(=O)c3ccc(Cl)c(Cl)c3)sc2n1CCN1CCOCC1` [Compound 9, (3,4-Dichlorophenyl)(5-methyl-6-(2-morpholinoethyl)-6H-thieno[2,3-b]pyrrol-2-yl)methanone] are 1 to 10 µM and 0.1 to 1 µM.
On the same counts, the results for `Cc1cc2cc(C(=O)c3ccc(OC(C)C)cc3)sc2n1CCN1CCOCC1` [Compound 111, (4-Isopropoxyphenyl)(5-methyl-6-(2-morpholinoethyl)-6H-thieno[2,3-b]pyrrol-2-yl)methanone] are 1 to 10 µM and 0.1 to 1 µM.
As to `C=Cn1c(C)cc2cc(C(=O)c3cccc(Cl)c3Cl)sc21` [Comp 29], the IC50 in test [1] is more than 10 µM; in test [2], 1 to 10 µM.
In the same order, the values of `COc1ccc(C(=O)c2cc3cc(C)n(CCN4CCCC4)c3s2)cc1` [Compound 83, (4-Methoxyphenyl)(5-methyl-6-(2-(pyrrolidin-1-yl)ethyl)-6H-thieno[2,3-b]pyrrol-2-yl)methanone] are 1 to 10 µM and 0.1 to 1 µM.
For `COc1ccc(C(=O)c2cc3cc(C)n(S(=O)(=O)N(C)C)c3s2)cn1` [Compound 113, 2-(6-Methoxynicotinoyl)-N,N,5-trimethyl-6H-thieno[2,3-b]pyrrole-6-sulfonamide], the IC50 is 1 to 10 µM in test [1] and less than 0.1 µM in test [2].
`COc1ccccc1C(=O)c1cc2cc(C)n(CCN3CCOCC3)c2s1` [Compound 13, (2-Methoxyphenyl)(5-methyl-6-(2-morpholinoethyl)-6H-thieno[2,3-b]pyrrol-2-yl)methanone]: the results for the IC50 in test [1] and in test [2] were 0.1 to 1 µM and less than 0.1 µM, respectively.
As to `Cc1cc2cc(C(=O)c3cccc(Cl)c3Cl)sc2n1CCC1CCOCC1` [Compound 18, (2,3-Dichlorophenyl)(5-methyl-6-(2-(tetrahydro-2H-pyran-4-yl)ethyl)-6H-thieno[2,3-b]pyrrol-2-yl)methanone], the IC50 in test [1] was 0.1 to 1 µM; in test [2], less than 0.1 µM.
On the same counts, the results for `COc1ccc(C(=O)c2cc3cc(C)n(CCN4CCCCC4)c3s2)cn1` [Compound 117, (6-Methoxypyridin-3-yl)(5-methyl-6-(2-(piperidin-1-yl)ethyl)-6H-thieno[2,3-b]pyrrol-2-yl)methanone] are 1 to 10 µM and 0.1 to 1 µM.
Take `Cc1cc2cc(C(=O)c3cccc(Cl)c3Cl)sc2n1CCN1CCCC1` [Compound 28, (2,3-Dichlorophenyl)(5-methyl-6-(2-(pyrrolidin-1-yl)ethyl)-6H-thieno[2,3-b]pyrrol-2-yl)methanone]: the half-maximal inhibitory concentration (IC50) in test [1] is 0.1 to 1 µM; in test [2] it was less than 0.1 µM.
On to `Cc1cc2cc(C(=O)c3cccc(F)c3F)sc2n1CCN1CCOCC1` [Compound 8, (2,3-Difluorophenyl)(5-methyl-6-(2-morpholinoethyl)-6H-thieno[2,3-b]pyrrol-2-yl)methanone], for which the figures for the IC50 in test [1] and in test [2] were 1 to 10 µM and 0.1 to 1 µM, respectively.
For the compound `COc1ccc(C(=O)c2cc3cc(C)n(CCCNS(N)(=O)=O)c3s2)cc1` [Compound 105], the IC50 is more than 10 µM in test [1] and 1 to 10 µM in test [2].
For the compound `COc1ccc(C(=O)c2cc3cc(C)n(CCCNC(C)(C)C)c3s2)cc1` [Compound 108, (6-(3-(tert-Butylamino)propyl)-5-methyl-6H-thieno[2,3-b]pyrrol-2-yl)(4-methoxyphenyl)methanone], the IC50 in test [1] and in test [2] was more than 10 µM each time.
With `Cc1cc2cc(C(=O)c3ccc(N(C)C)cc3)sc2n1CCN1CCOCC1` [Compound 59, (4-(Dimethylamino)phenyl)(5-methyl-6-(2-morpholinoethyl)-6H-thieno[2,3-b]pyrrol-2-yl)methanone], the IC50 was more than 10 µM in test [1] and 1 to 10 µM in test [2].
In the same order, the values of `COc1ccc(C(O)c2cc3cc(C)n(CCN4CCOCC4)c3s2)cc1` (stereo not drawn) [Compound 100, (4-Methoxyphenyl)(5-methyl-6-(2-morpholinoethyl)-6H-thieno[2,3-b]pyrrol-2-yl)methanol] are 1 to 10 µM and 0.1 to 1 µM.
In the same order, the values of `CCc1ccc(C(=O)c2cc3cc(C)n(CCN4CCOCC4)c3s2)cc1` [Compound 122, (4-Ethylphenyl)(5-methyl-6-(2-morpholinoethyl)-6H-thieno[2,3-b]pyrrol-2-yl)methanone] are 1 to 10 µM and less than 0.1 µM.
In the same order, the values of `COc1ccc(C(=O)c2cc3cc(C)n(Cc4ccccc4)c3s2)c(Cl)c1` [Compound 114, (6-Benzyl-5-methyl-6H-thieno[2,3-b]pyrrol-2-yl)(2-chloro-4-methoxyphenyl)methanone] are 1 to 10 µM and less than 0.1 µM.
Regarding `COc1ccc(C(=O)c2cc3cc(C)n(CCN4CCOCC4)c3s2)c(C)c1` [Compound 88, (4-Methoxy-2-methylphenyl)(5-methyl-6-(2-morpholinoethyl)-6H-thieno[2,3-b]pyrrol-2-yl)methanone], the IC50 is 0.1 to 1 µM in test [1] and less than 0.1 µM in test [2].
In the same order, the values of `COc1ccc(C(=S)c2cc3cc(C)n(CCN4CCOCC4)c3s2)cc1` [Compound 104, (4-methoxyphenyl)(5-methyl-6-(2-morpholinoethyl)-6H-thieno[2,3-b]pyrrol-2-yl)methanethione] are 1 to 10 µM and 1 to 10 µM.
On the same counts, the results for `COCCn1c(C)cc2cc(C(=O)c3cccc(Cl)c3Cl)sc21` [Compound 21, (2,3-Dichlorophenyl)(6-(2-methoxyethyl)-5-methyl-6H-thieno[2,3-b]pyrrol-2-yl)methanone] are 0.1 to 1 µM and 0.1 to 1 µM.
In the case of `COCCn1c(C)cc2cc(C(=O)c3ccc(OC)cc3)sc21` [Compound 49, (6-(2-Methoxyethyl)-5-methyl-6H-thieno[2,3-b]pyrrol-2-yl)(4-methoxyphenyl)methanone], the IC50 in test [1] was more than 10 µM; in test [2], 1 to 10 µM.
`COc1ccc(C(=O)c2cc3cc(C)n(CCN4CCCC4)c3s2)c(F)c1` [Compound 92, (2-Fluoro-4-methoxyphenyl)(5-methyl-6-(2-(pyrrolidin-1-yl)ethyl)-6H-thieno[2,3-b]pyrrol-2-yl)methanone]: the IC50 in test [1] lay within 1 to 10 µM; in test [2], 0.1 to 1 µM.
In the same order, the values of `COc1ccc(C(=O)c2cc3cc(C)n(CCN4CCOCC4)c3s2)cc1Cl` [Compound 116, (3-Chloro-4-methoxyphenyl)(5-methyl-6-(2-morpholinoethyl)-6H-thieno[2,3-b]pyrrol-2-yl)methanone] are 1 to 10 µM and 0.1 to 1 µM.
In the same order, the values of `CSc1ccc(C(=O)c2cc3cc(C)n(CCN4CCOCC4)c3s2)cc1` [Compound 115, (5-Methyl-6-(2-morpholinoethyl)-6H-thieno[2,3-b]pyrrol-2-yl)(4-(methylthio)phenyl)methanone] are 1 to 10 µM and 0.1 to 1 µM.
In the same order, the values of `COc1ccc(C(=O)c2cc3cc(C)n(Cc4ccncc4)c3s2)cc1` [Compound 112, (4-Methoxyphenyl)(5-methyl-6-(pyridin-4-ylmethyl)-6H-thieno[2,3-b]pyrrol-2-yl)methanone] are 1 to 10 µM and 0.1 to 1 µM.
`COc1ccc(C(=O)c2cc3cc(C)n(CC4CCOCC4)c3s2)cn1` [Compound 144, (6-methoxypyridin-3-yl)(5-methyl-6-((tetrahydro-2H-pyran-4-yl)methyl)-6H-thieno[2,3-b]pyrrol-2-yl)methanone]: the IC50 in test [1] lay within 1 to 10 µM; in test [2], 0.1 to 1 µM.
On the same counts, the results for `CCOc1ccc(C(=O)c2cc3cc(C)n(CCN4CCOCC4)c3s2)cc1` [Compound 55, (4-Ethoxyphenyl)(5-methyl-6-(2-morpholinoethyl)-6H-thieno[2,3-b]pyrrol-2-yl)methanone] are 1 to 10 µM and 0.1 to 1 µM.
In the same order, the values of `CCOc1ccc(C(=O)c2cc3cc(C)n(CCN4CCOCC4)c3s2)cn1` [Compound 150, (6-Ethoxypyridin-3-yl)(5-methyl-6-(2-morpholinoethyl)-6H-thieno[2,3-b]pyrrol-2-yl)methanone] are more than 10 µM and 1 to 10 µM.
In the same order, the values of `Cc1cc2cc(C(=O)c3ccccc3Cl)sc2n1CCN1CCOCC1` [Compound 5, (2-Chlorophenyl)(5-methyl-6-(2-morpholinoethyl)-61-1-thieno[2,3-b]pyrrol-2-yl)methanone] are 0.1 to 1 µM and less than 0.1 µM.
